Results: US20060165732A1, “Fungal antigens and eosinophil activity” (priority 2002, published 2006)

How the values were obtained:
[1] = test system: Human eosinophils; assay: Eosinophil degranulation measured by EDN release (RIA); type: cell-based
Description: The ability to induce eosinophilic degranulation was measured by EDN release. Human eosinophils were isolated from normal volunteers and volunteers reporting past allergies, hay fever, and/or asthma by Percoll density gradient centrifugation and magnetic cell sorting using MACS anti-CD16 microbeads as described by Hansel et al. (1991, J. Immunol. Methods, 145:105). Briefly, after peripheral blood was overlaid on an isotonic Percoll solution (1.084 g/ml; Sigma), the blood was centrifuged at 1000×g for 30 minutes at 4° C. Mononuclear cells at the interface were removed, and erythrocytes in the sediment were lysed by two cycles of hypotonic water lysis. Isolated granulocytes were washed twice with PIPES buffer (25 mM PIPES, 50 mM NaCl, 5 mM KCl, 25 mM NaOH, 5.4 mM glucose, pH 7.4) containing 1% bovine calf serum (Hyclone Laboratories; Logan, Utah). Cells were then incubated with an equal volume of anti-CD16-conjugated magnetic beads (Miltenyi Biotec, Auburn, Calif.) for 30 minutes at 4° C. with occasional gentle mixing. After 30 minutes of incubation on ice, cells were loaded onto a separation column positioned in the strong magnetic field of the MACS. Cells were eluted three times with 5 mL of PIPES buffer containing 1% bovine calf serum. The purity of eosinophils, as counted by Randolph's stain, was regularly >98%. Purified eosinophils were used immediately for experiments.
To monitor eosinophil degranulation, 200 μL of freshly isolated eosinophils were resuspended in HBSS with 25 mM HEPES and 0.01% gelatin at 5×10^5 cells/mL and incubated with the a particular fungal extract. […] To quantitate eosinophil degranulation, the concentration of one of the eosinophil granule proteins in the sample supernatants, EDN, was measured by specific RIA, as described previously (Horie & Kita, 1994, J. Immunol., 152:5457). […] Total cellular EDN was measured in parallel supernatants from cells lysed with Nonidet P-40 detergent (Sigma Chemical Co.). […]

[2] = test system: eosinophils; assay: Intracellular calcium [Ca^2+]i in eosinophils (indo-1, flow cytometer); type: cell-based, human; conditions: 100 μg/mL extract or 10 ng/mL IL-5, 37° C.
Description: Real time changes in cytosolic free Ca^2+ (intracellular Ca^2+ concentration ([Ca^2+]i)) were measured in a flow cytometer using the fluorescent calcium indicator indo-1 (Rabinovitch et al., 1986, J. Immunol., 137:952; Grynkiewicz et al., 1985, J. Biol Chem., 260:3440). Indicator was introduced into cells by incubating 1 mL of eosinophils at a concentration of 1 to 2×10^6 cells/mL with 3 μM indo-1/AM (Molecular Probes, Eugene, Oreg.) in phenol red-free RPMI 1640 medium supplemented with 10% alpha calf serum and 10 mM HEPES for 30 minutes at 37° C. After washing, cells were suspended in RPMI with 0.1% HSA and 10 mM HEPES at 1×10^6 cells/mL. To measure [Ca^2+]i, cells were stimulated with 100 μg/mL Alternaria culture extract or 10 ng/mL IL-5, and fluorescence was analyzed by a FACS analyzer equipped with an ion-argon laser (Becton Dickinson). [Ca^2+]i was monitored on the basis of the ratio of the fluorescence of the calcium-bound indo-1 emission (401 nm) and the free indo-1 emission (475 nm). In addition, the [Ca^2+] in the medium can be manipulated to determine the effect on [Ca^2+]i.

[3] = test system: Human peripheral blood eosinophils; assay: IL-8 production by eosinophils (ELISA); type: cell-based; conditions: 0.01 μg/mL, 24 hours
Description: Human peripheral blood eosinophils can produce and release proinflammtory cytokines including IL-8. Eosinophils were incubated with 50 μg/mL or 100 μg/mL of Alternaria, or with 0.01 μg/mL IL-5, and the amount of IL-8 was measured. Purified eosinophils (1 mL at 1×10^6 cells/mL) were cultured in RPMI 1640 medium supplemented with 10% BCS in the presence of Alternaria or IL-5 using 48-well tissue culture plates (Costar, Cambridge, Mass.). After incubating the eosinophils with Alternaria or IL-5 for 24 hours at 37° C. in an atmosphere of 5% CO2, cell free supernatants were collected and frozen at −20° C. The concentrations of IL-8 in the supernatants were measured using an ELISA kit (Quantikine IL-8 Immunoassay Kit, R&D Systems, Minneapolis, Minn.). The threshold sensitivity of the kit was 4 pg/mL.

IL-5: cytokine used as reference stimulus of eosinophil degranulation
EDN release ([1]; 10 ng/mL): 52.1±6.5 ng EDN/10^6 cells | EDN release, eosinophils from allergy patients versus normal individuals ([1]; 100 μg/mL Alternaria culture extracts or 10 ng/mL IL-5): no difference | EDN release at 4° C. ([1]; incubation at 4° C. for 3 hours): abrogated EDN release | change in [Ca^2+]i [2]: no elevation of [Ca^2+]i | IL-8 production from eosinophils [3]: very little IL-8
